# Laboratory results as given in ChEMBL document CHEMBL5223101, “Evolution of 3-(4-hydroxyphenyl)indoline-2-one as a scaffold for potent and selective anticancer activity” (RSC Med Chem, 2022).
# Assay: Anticancer activity against human ECC-1 cells assessed as cell death at 1 uM by tryphan blue staining based cell counter analysis relative to control
structure (smiles),measurement,value
Cc1cccc2c1NC(=O)C2(c1ccc(O)cc1)c1ccc(O)cc1,cell death at 1 µM,< 20%
